Test results reported in patent publication US10654855B2 (priority 2007, dated 2020).

Target: AKT1 (PKBα) (Homo sapiens (Human), UniProt P31749)
Conditions: read-out: In vitro PKBα Mean IC50; AKT1/PKBα active enzyme; values marked * tested once only

Sequence of AKT1 (PKBα) (P31749 whole entry): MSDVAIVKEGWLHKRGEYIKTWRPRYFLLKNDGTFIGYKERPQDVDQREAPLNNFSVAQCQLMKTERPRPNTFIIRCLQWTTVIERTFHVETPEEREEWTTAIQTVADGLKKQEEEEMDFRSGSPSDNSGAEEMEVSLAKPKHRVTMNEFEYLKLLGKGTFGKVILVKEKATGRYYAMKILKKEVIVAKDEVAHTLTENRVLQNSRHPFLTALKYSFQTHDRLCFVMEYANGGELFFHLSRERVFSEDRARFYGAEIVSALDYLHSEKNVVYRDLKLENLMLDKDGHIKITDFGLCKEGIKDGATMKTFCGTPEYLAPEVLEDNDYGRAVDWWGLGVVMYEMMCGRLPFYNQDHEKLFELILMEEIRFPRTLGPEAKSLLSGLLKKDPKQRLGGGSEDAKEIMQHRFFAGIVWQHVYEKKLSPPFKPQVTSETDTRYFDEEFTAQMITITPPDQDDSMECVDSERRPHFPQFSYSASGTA

Work on `C[C@H](NC(=O)C1(N)CCN(c2ncnc3[nH]ccc23)CC1)c1ccc(C#N)cc1` [Example 39, 4-amino-N-[(1S)-1-(4-cyanophenyl)ethyl]-1-(7H-pyrrolo[2,3-d]pyrimidin-4-yl)piperidine-4-carboxamide] yielded an IC50 of 0.05 µM.
